{
  "source": "ChEMBL document CHEMBL5506010",
  "about": "“Butyrylcholinesterase-Activated Near-Infrared Fluorogenic Probe for In Vivo Theranostics of Alzheimer's Disease” (J Med Chem, 2024)",
  "key": {"Cholinesterase [1]": {"molecular_target": "T1, Cholinesterase (Homo sapiens, UniProt P06276)", "T1 sequence (P06276 whole entry)": "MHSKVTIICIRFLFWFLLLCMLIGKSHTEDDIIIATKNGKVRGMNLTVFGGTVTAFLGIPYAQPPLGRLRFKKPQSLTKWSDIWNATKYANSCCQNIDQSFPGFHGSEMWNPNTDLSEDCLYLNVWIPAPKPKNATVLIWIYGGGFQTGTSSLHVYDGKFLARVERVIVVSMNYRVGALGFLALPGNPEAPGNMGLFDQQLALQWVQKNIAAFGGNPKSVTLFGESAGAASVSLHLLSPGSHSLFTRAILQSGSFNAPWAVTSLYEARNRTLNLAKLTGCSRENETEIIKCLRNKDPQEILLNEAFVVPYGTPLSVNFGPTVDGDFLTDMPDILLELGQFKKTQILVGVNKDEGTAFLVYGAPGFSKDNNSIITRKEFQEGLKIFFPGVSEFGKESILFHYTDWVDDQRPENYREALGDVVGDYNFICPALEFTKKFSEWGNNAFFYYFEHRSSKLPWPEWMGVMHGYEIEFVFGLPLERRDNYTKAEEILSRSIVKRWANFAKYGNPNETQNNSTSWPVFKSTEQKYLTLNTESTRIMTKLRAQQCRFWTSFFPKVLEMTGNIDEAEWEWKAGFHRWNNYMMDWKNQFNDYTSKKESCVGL", "test": "Binding affinity to BChE in human LN-229 cells at 10 uM incubated for 1 hrs by fluorescence based confocal laser scanning microscopic analysis", "format": "cell-based"}, "PC-12 [2]": {"system": "PC-12", "test": "Binding affinity to BChE in rat PC-12 cells at 10 uM incubated for 1 hrs by fluorescence based confocal laser scanning microscopic analysis", "format": "cell-based"}, "PC-12 [3]": {"system": "PC-12", "test": "Binding affinity to BChE in rat PC-12 cells assessed as increase in fluorescence intensity incubated for 1 hrs by fluorescence based confocal laser scanning microscopic analysis", "format": "cell-based", "conditions": "dose 1-10 µM"}, "[4]": {"test": "Drug uptake in HEK293T cells transfected with BChE siRNA assessed as increase in fluorescence intensity by fluorescence based confocal laser scanning microscopic analysis", "format": "ADME, cell-based", "conditions": "human, hek-293t"}, "Acetylcholinesterase": {"molecular_target": "Acetylcholinesterase (Homo sapiens, UniProt P22303)", "sequence (P22303 whole entry)": "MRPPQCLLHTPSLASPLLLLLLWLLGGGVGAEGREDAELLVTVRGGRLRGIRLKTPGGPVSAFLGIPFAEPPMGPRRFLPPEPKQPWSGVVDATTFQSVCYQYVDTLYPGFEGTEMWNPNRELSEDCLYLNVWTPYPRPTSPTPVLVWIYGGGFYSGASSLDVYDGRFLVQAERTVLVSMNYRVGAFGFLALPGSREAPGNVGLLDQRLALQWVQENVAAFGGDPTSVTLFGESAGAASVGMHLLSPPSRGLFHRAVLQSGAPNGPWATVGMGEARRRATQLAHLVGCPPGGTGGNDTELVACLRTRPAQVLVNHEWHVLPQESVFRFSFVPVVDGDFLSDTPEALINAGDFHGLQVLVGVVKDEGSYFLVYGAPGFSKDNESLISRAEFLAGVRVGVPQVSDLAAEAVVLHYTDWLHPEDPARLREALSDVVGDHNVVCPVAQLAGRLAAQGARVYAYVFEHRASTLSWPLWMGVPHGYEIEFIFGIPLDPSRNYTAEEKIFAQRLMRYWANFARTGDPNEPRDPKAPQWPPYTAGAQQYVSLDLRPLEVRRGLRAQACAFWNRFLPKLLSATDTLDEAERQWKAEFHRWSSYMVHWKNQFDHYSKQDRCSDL", "test": "Inhibition of human AChE using acetylthiocholine iodide as substrate at 10 uM preincubated for 5 mins followed by substrate addition and measured immediately by Ellmans method relative to control"}, "SH-SY5Y [5]": {"system": "SH-SY5Y", "test": "Neuroprotective activity against amyloid-beta (1 to 42)-induced cell death in human SH-SY5Y cells assessed as increase in cell survival preincubated with compound for 2 hrs followed by amyloid beta (1 to 42) addition and measured after 24 hrs by MTT assay", "format": "functional, cell-based", "conditions": "dose 10-50 µM, time 26.0 hrs"}, "SH-SY5Y [6]": {"system": "SH-SY5Y", "test": "Neuroprotective activity against amyloid-beta (1 to 42)-induced human SH-SY5Y cells assessed as decrease in amyloid beta (1 to 42) level in culture medium at 10 to 20 uM incubated for 24 hrs by ELISA", "format": "functional, cell-based", "conditions": "dose 10-20 µM"}, "SH-SY5Y [7]": {"system": "SH-SY5Y", "test": "Neuroprotective activity against amyloid-beta (1 to 42)-induced human SH-SY5Y cells assessed as decrease in amyloid beta (1 to 42) level in cell lysate at 10 to 20 uM incubated for 24 hrs by ELISA", "format": "functional, cell-based", "conditions": "dose 10-20 µM"}, "HT-22 [8]": {"system": "HT-22", "test": "Inhibition of H2O2-induced ROS release in mouse HT-22 cells assessed as decrease in green fluorescence at 1 to 10 uM preincubated for 1 hrs followed by H2O2 addition and measured after 24 hrs by DCFH-DA based confocal laser scanning microscopic analysis", "format": "functional, cell-based", "conditions": "dose 1-10 µM, time 25.0 hrs"}, "HT-22 [9]": {"system": "HT-22", "test": "Inhibition of H2O2-induced ROS release in mouse HT-22 cells assessed as increase in red fluorescence at 1 to 10 uM preincubated for 1 hrs followed by H2O2 addition and measured after 24 hrs by DCFH-DA based confocal laser scanning microscopic analysis", "format": "functional, cell-based", "conditions": "dose 1-10 µM, time 25.0 hrs"}, "[10]": {"molecular_target": "Cholinesterase (Mus musculus) (UniProt Q03311)", "sequence (Q03311 whole entry)": "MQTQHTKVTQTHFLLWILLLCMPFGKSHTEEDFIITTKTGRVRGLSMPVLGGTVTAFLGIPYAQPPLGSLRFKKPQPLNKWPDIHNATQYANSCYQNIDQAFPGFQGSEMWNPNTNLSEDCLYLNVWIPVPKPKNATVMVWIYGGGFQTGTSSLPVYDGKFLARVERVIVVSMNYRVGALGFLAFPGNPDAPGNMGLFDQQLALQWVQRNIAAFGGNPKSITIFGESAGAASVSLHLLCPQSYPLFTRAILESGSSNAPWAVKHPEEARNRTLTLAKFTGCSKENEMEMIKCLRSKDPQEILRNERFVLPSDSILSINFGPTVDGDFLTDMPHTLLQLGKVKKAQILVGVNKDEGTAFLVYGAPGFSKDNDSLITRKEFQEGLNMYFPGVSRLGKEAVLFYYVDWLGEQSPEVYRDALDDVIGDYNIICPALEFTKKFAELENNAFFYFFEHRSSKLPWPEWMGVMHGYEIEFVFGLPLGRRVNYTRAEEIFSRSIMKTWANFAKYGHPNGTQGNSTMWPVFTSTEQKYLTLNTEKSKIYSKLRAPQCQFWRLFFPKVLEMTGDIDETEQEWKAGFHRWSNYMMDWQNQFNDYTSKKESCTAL", "test": "Binding affinity to BChE in mouse HT-22 cells assessed as increase in fluorescence at 10 uM incubated for 1 hrs in presence of DCF by laser confocal imaging analysis", "format": "cell-based"}, "[11]": {"test": "Stability of compound in male ICR mouse brain at 100 uM, iv measured after 24 hrs by fluorescence microplate reader", "format": "ADME, organism-based"}, "[12]": {"test": "Stability of compound at pH 12 measured within 3 mins by microplate reader analysis", "format": "physicochemical", "conditions": "buffer, pH 12, 0.05 h"}, "[13]": {"test": "Stability of compound in male ICR mouse brain at 100 uM, iv measured at 5 to 60 mins by fluorescence microplate reader", "format": "ADME, organism-based", "conditions": "time 5-60 min"}, "[14]": {"test": "Drug accumulation in brain of APP/PS1 transgenic AD-mouse model at 100 uM, iv measured at 5 to 60 mins by fluorescence imaging analysis", "format": "ADME, organism-based", "conditions": "in vivo, time 5-60 min"}, "[15]": {"test": "Drug uptake in brain of 7-month old APP/[…] transgenic AD-mouse model assessed as increase in fluorescence at 100 uM, iv measured after 1 hrs by fluorescence imaging analysis", "format": "ADME, organism-based", "conditions": "in vivo"}, "[16]": {"test": "Drug uptake in wildtype mouse brain assessed as increase in fluorescence at 100 uM, iv by fluorescence scanning analysis", "format": "ADME, organism-based", "conditions": "in vivo"}, "[17]": {"test": "Drug uptake in brain of 6 weeks old AD-mouse model assessed as increase in fluorescence at 100 uM, iv by fluorescence scanning analysis", "format": "ADME, organism-based", "conditions": "in vivo"}, "[18]": {"test": "Drug uptake in wildtype mouse brain assessed as increase in fluorescence at 100 uM, iv preadministered with tacrine for 4 hrs followed by compound administration by fluorescence scanning analysis", "format": "ADME, organism-based", "conditions": "in vivo"}, "[19]": {"test": "Drug uptake in brain of 8 months old AD-mouse model assessed as increase in fluorescence at 100 uM, iv preadministered with tacrine for 4 hrs followed by compound administration by fluorescence scanning analysis", "format": "ADME, organism-based", "conditions": "in vivo"}, "Mus musculus [20]": {"system": "Mus musculus", "test": "Antialzheimer activity in APP/PS1 transgenic AD mouse model assessed as improvement in learning administered intravenously once every 2 days for 10 times followed by morris water maze training from day 21 to 25 and measured on day 26 by Morris water maze test", "format": "functional, organism-based", "conditions": "route iv, time 26.0 day"}, "Mus musculus [21]": {"system": "Mus musculus", "test": "Antialzheimer activity in APP/PS1 transgenic AD mouse model assessed as improvement in memory administered intravenously once every 2 days for 10 times followed by morris water maze training from day 21 to 25 and measured on day 26 by Morris water maze test", "format": "functional, organism-based", "conditions": "route iv, time 26.0 day"}, "Mus musculus [22]": {"system": "Mus musculus", "test": "Antialzheimer activity in APP/PS1 transgenic AD mouse model assessed as improvement in NC scores administered intravenously once every 2 days for 10 times and measured on day 27 by Nest construction test", "format": "functional, organism-based", "conditions": "route iv, time 27.0 day"}, "Mus musculus [23]": {"system": "Mus musculus", "test": "Antialzheimer activity in APP/PS1 transgenic AD mouse model assessed as improvement in recognition index for novel objects administered intravenously once every 2 days for 10 times and measured on day 28 by Novel object recognition test", "format": "functional, organism-based", "conditions": "route iv, time 28.0 day"}, "[24]": {"test": "Toxicity in APP/PS1 transgenic AD mouse model assessed as effect on body weight administered intravenously once every 2 days for 10 times and measured on day 30", "conditions": "in vivo, iv, 720 h, time 30 day"}, "[25]": {"test": "Toxicity in APP/PS1 transgenic AD mouse model assessed as kidney damage administered intravenously once every 2 days for 10 times and measured on day 30 by H and E staining based analysis", "format": "tissue-based", "conditions": "in vivo, iv, 720 h, time 30 day"}, "[26]": {"test": "Toxicity in APP/PS1 transgenic AD mouse model assessed as heart damage administered intravenously once every 2 days for 10 times and measured on day 30 by H and E staining based analysis", "format": "tissue-based", "conditions": "in vivo, iv, 720 h, time 30 day"}, "[27]": {"test": "Toxicity in APP/PS1 transgenic AD mouse model assessed as liver damage administered intravenously once every 2 days for 10 times and measured on day 30 by H and E staining based analysis", "format": "tissue-based", "conditions": "in vivo, iv, 720 h, time 30 day"}, "Cholinesterase [28]": {"molecular_target": "T1, Cholinesterase", "test": "Binding affinity to BChE (unknown origin) in PBS assessed as cyan coloured appearance of compound by UV/vis absorption analysis"}, "Cholinesterase [29]": {"molecular_target": "T1, Cholinesterase", "test": "Binding affinity to BChE (unknown origin) in PBS assessed as fold change in fluorescence intensity at 710 nm by fluorescence spectra analysis"}, "[30]": {"test": "Selectivity ratio of fluorescence intensity for binding affinity to AChE (unknown origin) in PBS to fluorescence intensity for binding affinity to BChE (unknown origin) in PBS"}, "Homo sapiens": {"organism": "Homo sapiens", "test": "Binding affinity to carboxylesterase (unknown origin) by fluorescence analysis"}, "Cholinesterase [31]": {"molecular_target": "T1, Cholinesterase", "test": "Binding affinity to BChE (unknown origin) assessed as enzyme mediated compound hydrolysis measured after 1 min by HPLC analysis relative to control", "set-up": "scale not given: the % may be the effect or the level left"}, "Cholinesterase [32]": {"molecular_target": "T1, Cholinesterase", "test": "Binding affinity to BChE (unknown origin) assessed as enzyme mediated compound hydrolysis measured after 5 min by HPLC analysis relative to control", "set-up": "scale not given: the % may be the effect or the level left"}, "Cholinesterase [33]": {"molecular_target": "T1, Cholinesterase", "test": "Binding affinity to BChE (unknown origin) in PBS assessed as maximum initial reaction rate by fluorometric method"}},
  "note": "The source made the active and inactive calls. The calls are words filed in the database; no cut-off is given here.",
  "data": [
    {"compound": "CCN(CC)Cc1ccccc1CNC(=O)c1cccc(NC(=O)c2cccc(C(=O)NCCn3cc(CCC[N+]4=C(/C=C/C5=C6Oc7cc(OC(=O)C8CC8)ccc7C=C6CCC5)C(C)(C)c5ccccc54)nn3)c2)c1.[I-]", "values": [
      {"measurement": "Activity", "setting": "Cholinesterase [1]", "result": "Active"},
      {"measurement": "Activity", "setting": "PC-12 [2]", "result": "Active"},
      {"measurement": "Activity", "setting": "PC-12 [3]", "result": "Dose-Dependent Effect"},
      {"measurement": "Drug uptake", "setting": "[4]", "result": "Not Active"},
      {"measurement": "inhibition", "setting": "Acetylcholinesterase", "result": 12.3, "unit": "%"},
      {"measurement": "Activity", "setting": "SH-SY5Y [5]", "result": "Dose-Dependent Effect"},
      {"measurement": "Activity", "setting": "SH-SY5Y [6]", "result": "Active"},
      {"measurement": "Activity", "setting": "SH-SY5Y [7]", "result": "Active"},
      {"measurement": "inhibition", "setting": "HT-22 [8]", "result": "Active"},
      {"measurement": "inhibition", "setting": "HT-22 [9]", "result": "Active"},
      {"measurement": "Activity", "setting": "[10]", "result": "inactive"},
      {"measurement": "Stability", "setting": "[11]", "result": "Unstable"},
      {"measurement": "Stability", "setting": "[12]", "result": "Unstable"},
      {"measurement": "Stability", "setting": "[13]", "result": "Stable"},
      {"measurement": "Drug uptake", "setting": "[14]", "result": "Active"},
      {"measurement": "Drug uptake", "setting": "[15]", "result": "Active"},
      {"measurement": "Drug uptake", "setting": "[16]", "result": "Active"},
      {"measurement": "Drug uptake", "setting": "[17]", "result": "Active"},
      {"measurement": "Drug uptake", "setting": "[18]", "result": "Not Active"},
      {"measurement": "Drug uptake", "setting": "[19]", "result": "Not Active"},
      {"measurement": "Activity", "setting": "Mus musculus [20]", "result": "Active"},
      {"measurement": "Activity", "setting": "Mus musculus [21]", "result": "Active"},
      {"measurement": "Activity", "setting": "Mus musculus [22]", "result": "Active"},
      {"measurement": "Activity", "setting": "Mus musculus [23]", "result": "Active"},
      {"measurement": "Activity", "setting": "[24]", "result": "Non-Toxic"},
      {"measurement": "Activity", "setting": "[25]", "result": "Non-Toxic"},
      {"measurement": "Activity", "setting": "[26]", "result": "Non-Toxic"},
      {"measurement": "Activity", "setting": "[27]", "result": "Non-Toxic"},
      {"measurement": "Activity", "setting": "Cholinesterase [28]", "result": "Active"},
      {"measurement": "fold change (FC)", "setting": "Cholinesterase [29]", "result": 24},
      {"measurement": "Selectivity ratio", "setting": "[30]", "result": 22.8},
      {"measurement": "Activity", "setting": "Homo sapiens", "result": "inactive"},
      {"measurement": "Activity", "setting": "Cholinesterase [31]", "result": 50, "unit": "%"},
      {"measurement": "Activity", "setting": "Cholinesterase [32]", "result": "> 90", "unit": "%"},
      {"measurement": "Activity", "setting": "Cholinesterase [33]", "result": 3.02, "unit": "µM/min"}
    ]}
  ]
}
